Test results from US11370784B2 (MISSION THERAPEUTICS LIMITED, priority 2016, dated 2022).
pIC50: −log10 of the molar value.

Molecular target: USP30 (Homo sapiens (Human), UniProt Q70CQ3)
Test: USP30 biochemical IC50 assay
Settings: fluorescence polarisation, TAMRA labelled peptide linked to ubiquitin as substrate; enzyme and compound incubated 30 min at room temp; read-out: IC50 range
Protocol: Reactions were performed in duplicate in black 384 well plates (small volume, Greiner 784076) in a final reaction volume of 21 μl. Either 1 μl of 50% DMSO or diluted compound was added to the plate. USP30 was diluted in reaction buffer (40 mM Tris, pH 7.5, 0.005% Tween 20, 0.5 mg/ml BSA, 5 mM beta-mercaptoethanol) to the equivalent of 0.05 μl/well and 10 μl of diluted USP30 was added to the compound. Enzyme and compound were incubated for 30 min at room temp. Reactions were initiated by the addition of 50 nM of TAMRA labelled peptide linked to ubiquitin via an iso-peptide bond as fluorescence polarisation substrate. Reactions were read immediately after addition of substrate and following a 2 h incubation at room temperature. Readings were performed on a Pherastar Plus (BMG Labtech). λ Excitation 540 nm; λ Emission 590 nm.

Sequence of USP30 (Q70CQ3 57-517): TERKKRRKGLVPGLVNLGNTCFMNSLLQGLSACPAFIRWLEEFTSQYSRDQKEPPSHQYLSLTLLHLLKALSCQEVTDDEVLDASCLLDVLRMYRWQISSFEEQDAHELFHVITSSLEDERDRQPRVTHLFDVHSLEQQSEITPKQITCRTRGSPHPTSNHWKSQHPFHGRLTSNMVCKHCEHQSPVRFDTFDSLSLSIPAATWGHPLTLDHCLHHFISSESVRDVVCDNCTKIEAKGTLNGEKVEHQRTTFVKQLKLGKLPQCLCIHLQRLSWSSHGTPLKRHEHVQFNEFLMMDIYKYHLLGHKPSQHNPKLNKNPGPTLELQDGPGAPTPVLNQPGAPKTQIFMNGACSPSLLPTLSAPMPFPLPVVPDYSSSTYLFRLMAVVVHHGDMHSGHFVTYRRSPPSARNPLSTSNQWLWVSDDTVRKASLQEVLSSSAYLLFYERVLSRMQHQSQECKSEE

| Compound | pIC50 |
| --- | --- |
| N#CN1CCO[C@@H](C(=O)Nc2cnc(-c3ccccc3)s2)C1 [Example 28, (R)-4-Cyano-N-(2-phenylthiazol-5-yl)morpholine-2-carboxamide] | 5.00 to 6.00 |
| COc1cccc(-c2cc(NC(=O)C3CN(C#N)CCO3)on2)c1 (stereo not shown) [Example 10, 4-Cyano-N-(3-(3-methoxyphe-nyl)isoxazol-5-yl)morpholine-2-carboxamide] | 5.00 to 6.00 |
| N#CN1CCO[C@@H](C(=O)Nc2cc3cc(-c4cn[nH]c4)ccc3cn2)C1 [Example 31, (R)-N-(6-(1H-Pyrazol-4-yl)isoquinolin-3-yl)-4-cyanomorpholine-2-carboxamide] | 5.00 to 6.00 |
| N#CN1CCO[C@H](C(=O)Nc2ncc(-c3ccccc3)s2)C1 [Example 33, (S)-4-Cyano-N-(5-phenylthiazol-2-yl)morpholine-2-carboxamide] | 5.00 to 6.00 |
| N#CN1CCCC(F)(C(=O)Nc2nc3ccc(-c4cn[nH]c4)cc3s2)C1 (stereo not shown) [Example 50, N-(6-(1H-Pyrazol-4-yl)benzo[d]thiazol-2-yl)-1-cyano-3-fluoropiperidine-3-carboxamide] | 5.00 to 6.00 |
| N#CN1CCO[C@@H](C(=O)Nc2ccc(-c3ccn[nH]3)cn2)C1 [Example 29, (R)-N-(5-(1H-Pyrazol-5-yl)pyridin-2-yl)-4-cyanomorpholine-2-carboxamide] | 5.00 to 6.00 |
| N#Cc1cccc(-c2cc(NC(=O)[C@H]3CN(C#N)CCO3)ncn2)c1 [Example 4, (R)-4-Cyano-N-(6-(3-cyanophenyl)pyrimidin-4-yl)morpholine-2-carboxamide] | > 7.00 |
| N#Cc1cccc(-c2ccnc(NC(=O)[C@@H]3CN(C#N)CCO3)c2)c1 [Example 54, (S)-4-Cyano-N-(4-(3-cyanophenyl)pyridin-2-yl)morpholine-2-carboxamide] | 5.00 to 6.00 |
| N#CN1CCC[C@](F)(C(=O)Nc2ccc(-c3cccc4[nH]ncc34)nn2)C1 [Example 91, (R)—N-(6-(1H-Indazol-4-yl)pyridazin-3-yl)-1-cyano-3-fluoropiperidine-3-carboxamide] | > 7.00 |
| N#CN1CCC[C@H](C(=O)Nc2ncc(-c3ccccc3)s2)C1 [Example 56, (S)-1-Cyano-N-(5-phenylthiazol-2-yl)piperidine-3-carboxamide] | 5.00 to 6.00 |
| CCCOc1cc(NC(=O)C2CN(C#N)CCO2)ccc1-c1ccn[nH]1 (stereo not shown) [Example 3, 4-Cyano-N-(3-propoxy-4-(1H-pyrazol-5-yl)phenyl)morpholine-2-carboxamide] | 6.00 to 7.00 |
| N#CN1CCO[C@@H](C(=O)Nc2ncc(-c3ccccc3)s2)C1 [Example 20, (R)-4-Cyano-N-(5-phenylthiazol-2-yl)morpholine-2-carboxamide] | 6.00 to 7.00 |
| N#CN1CCCC(F)(C(=O)Nc2cn(-c3ccccc3)cn2)C1 (stereo not shown) [Example 43, 1-Cyano-3-fluoro-N-(1-phenyl-1H-imidazol-4-yl)piperidine-3-carboxamide] | 6.00 to 7.00 |
| N#CN1CC(C(=O)Nc2nc3ccc(-c4cn[nH]c4)cc3s2)CC(F)(F)C1 (stereo not shown) [Example 59, N-(6-(1H-Pyrazol-4-yl)benzo[d]thiazol-2-yl)-1-cyano-5,5-difluoropiperidine-3-carboxamide] | 5.00 to 6.00 |
| N#Cc1cccc(-c2ccnc(NC(=O)[C@H]3CN(C#N)CCO3)c2)c1 [Example 53, (R)-4-Cyano-N-(4-(3-cyanophenyl)pyridin-2-yl)morpholine-2-carboxamide] | > 7.00 |
| N#CN1CCOC(C(=O)Nc2ccc(-c3ccccc3)cn2)C1 (stereo not shown) [Example 12, 4-Cyano-N-(5-phenylpyridin-2-yl)morpholine-2-carboxamide] | 5.00 to 6.00 |
| N#Cc1cccc(-c2ccnc(NC(=O)C3(F)CCCN(C#N)C3)c2)c1 (racemic) [Example 47, 1-Cyano-N-(4-(3-cyanophenyl)pyridin-2-yl)-3-fluoropiperidine-3-carboxamide] | 5.00 to 6.00 |
| N#CN1CCOC(C(=O)Nc2ncc(-c3ccc(F)cc3)s2)C1 (stereo not shown) [Example 2, 4-Cyano-N-(5-(4-fluorophenyl)thiazol-2-yl)morpholine-2-carboxamide] | 6.00 to 7.00 |
| N#CN1CCC[C@](F)(C(=O)Nc2cnc(-c3cccc4[nH]ncc34)cn2)C1 [Example 87, (R)—N-(5-(1H-Indazol-4-yl)pyrazin-2-yl)-1-cyano-3-fluoropiperidine-3-carboxamide] | > 7.00 |
| N#CN1CCCC(F)(C(=O)Nc2ncc(-c3ccccc3)s2)C1 (stereo not shown) [Example 42, 1-Cyano-3-fluoro-N-(5-phenylthiazol-2-yl)piperidine-3-carboxamide] | 6.00 to 7.00 |
| N#Cc1cc(F)cc(-c2cc(NC(=O)[C@H]3CN(C#N)CCO3)ncn2)c1 [Example 24, (R)-4-Cyano-N-(6-(3-cyano-5-fluoro-phenyl)pyrimidin-4-yl)morpholine-2-carboxamide] | 6.00 to 7.00 |
| N#Cc1cccc(-c2ccnc(NC(=O)[C@@]3(F)CCCN(C#N)C3)c2)c1 [Example 52, (R)-1-Cyano-N-(4-(3-cyanophenyl)pyridin-2-yl)-3-fluoropiperidine-3-carboxamide] | 6.00 to 7.00 |
| N#CN1CCC[C@](F)(C(=O)Nc2ccc(-c3cccc4cn[nH]c34)nn2)C1 [Example 88, (R)—N-(6-(1H-indazol-7-yl)pyridazin-3-yl)-1-cyano-3-fluoropiperidine-3-carboxamide] | > 7.00 |
| CC(C)Oc1cccc(-c2cc(NC(=O)[C@H]3CN(C#N)CCO3)ncn2)c1 [Example 23, (R)-4-Cyano-N-(6-(3-isopropoxy-phenyl)pyrimidin-4-yl)morpholine-2-carboxamide] | 5.00 to 6.00 |
| N#CN1CCC[C@](F)(C(=O)Nc2cn(-c3cccc(OC(F)(F)F)c3)cn2)C1 (stereo in doubt) [Example 81, 1-Cyano-3-fluoro-N-(1-(3-(trifluoromethoxy)phenyl)-1H-imidazol-4-yl)piperidine-3-carboxamide] | 6.00 to 7.00 |
| N#CN1CCC[C@](F)(C(=O)Nc2ccc(-c3cccc4[nH]ncc34)cn2)C1 [Example 85, (R)—N-(5-(1H-Indazol-4-yl)pyridin-2-yl)-1-cyano-3-fluoropiperidine-3-carboxamide] | > 7.00 |
| N#CN1CCCC(C(=O)Nc2ccc(-c3ccccc3)cn2)C1 (stereo not shown) [Example 39, 1-Cyano-N-(5-phenylpyridin-2-yl)piperidine-3-carboxamide] | 5.00 to 6.00 |
| N#CN1CCCC(C(=O)Nc2cc(-c3ccccc3)no2)C1 (stereo not shown) [Example 41, 1-Cyano-N-(3-phenylisoxazol-5-yl)piperidine-3-carboxamide] | 5.00 to 6.00 |
